Where two headings read alike, the source gives them in different places.
Assays:
Type in all cases: cell-based
[1] = test system: HL60 (acute myeloid leukemia, CD13 positive) cells; assay: Inhibition of tritiated thymidine incorporation, 5 day, HL60; conditions: HL60, 5 days
Method: (§1) Actinonin was purchased from Sigma (St. Louis, Mo.). Biotinylated-Actinonin and all analogs were synthesized. Actinonin stock solution was 5 mg/ml in 10% ethanol. Biotinylated-actinonin and all other analogs were diluted in 10% DMSO to give stock solutions in the range of 1-20 mg/ml.
(§2) Daudi (B lineage Burkitt's lymphoma, CD13 negative) and HL60 (acute myeloid leukemia, CD13 positive) cells were maintained in culture using RPMI 1640 supplemented with 10% heat-inactivated FBS (Omega Scientific, Inc., Tarzana, Calif.) and 1% L-glutamine (Gibco/Invitrogen, Carlsbad, Calif.) at 37° C. in a humidified atmosphere of 5% CO2. Cell viability was higher than 90%, and cells were free of mycoplasma contamination.
(§3) An aliquot of 200 ul of cells (10,000 cells/well) was washed and incubated at 37° C. in 96-well plates in the presence or absence of actinonin/analogs. Serial dilutions were made in complete media. After 5 days of incubation, 50 ul of 10 uCi/mL tritiated thymidine (PerkinElmer, Boston, Mass.) was added to each well and allowed to incorporate for 5 hours. Plates were frozen at −80° C. overnight and cells were harvested onto filtermats (Wallac, Finland) using a semi-automatic harvester (Skatron, Sterling, Va.). Filtermats were counted in a 1205 Betaplate™ liquid scintillation counter (Wallac, Finland). The reference numbers refer to those analogs disclosed in Example 6. Compounds 35, 42, 48, 52, 53, and 56 are effective at inhibiting cell growth.

[2] = test system: Daudi (B lineage Burkitt's lymphoma, CD13 negative) cells; assay: Inhibition of tritiated thymidine incorporation, 5 day, Daudi; conditions: 5 days
Method: as §1, §2, §3

Daudi and HL60 cells = assay: Thymidine incorporation, summary statement on cell growth (Daudi and HL60); conditions: summary of Tables 4 and 5
Method: as §1, §2, §3

[3] = Homo sapiens, HL-60, 120 h, read-out: HL60 IC50 (uM), 5 day thymidine incorporation
[4] = Homo sapiens, HL-60, 120 h, read-out: HL60 IC50 (ug/mL), 5 day thymidine incorporation
[5] = Homo sapiens, 120 h, read-out: Daudi IC50 (uM), 5 day thymidine incorporation
[6] = Homo sapiens, 120 h, read-out: Daudi IC50 (ug/mL), 5 day thymidine incorporation

Row | IC50 [1, 3] [µM] | IC50 [1, 4] [µg/mL] | IC50 [2, 5] [µM] | IC50 [2, 6] [µg/mL] | HL60 IC50 (ug/mL), 5 day thymidine incorporation [1] [µg/mL] | IC50 ([1]; read-out: HL60 IC50 (uM), 5 day thymidine incorporation) [µM] | Daudi IC50 (ug/mL), 5 day thymidine incorporation [2] [µg/mL] | IC50 ([2]; read-out: Daudi IC50 (uM), 5 day thymidine incorporation) [µM] | SMILES | inhibiting cell growth (Daudi and HL60 cells)
1 | > 239 | > 100 |  |  |  |  |  |  | CCCCC[C@H](CC(=O)O)C(=O)N[C@@H](Cc1ccccc1)C(=O)N1CCC[C@H]1CO [Compound 54, 3-[1-(2-hydroxymethyl-pyrrolidin-1-yl)-2-benzylcarbamoyl]-octanoic acid] | 
2 | > 211 | > 100 |  |  |  |  |  |  | CCCCC[C@H](CC(=O)N(CC)CC)C(=O)N[C@@H](Cc1ccccc1)C(=O)N1CCC[C@H]1CO [Compound 57] | 
3 | > 217 | > 100 |  |  |  |  |  |  | CCCCC[C@H](CC(=O)N(C)OC)C(=O)N[C@@H](Cc1ccccc1)C(=O)N1CCC[C@H]1CO [Compound 65] | 
4 | > 225 | > 100 |  |  |  |  |  |  | CCCCC[C@H](CC(=O)NCC)C(=O)N[C@@H](Cc1ccccc1)C(=O)N1CCC[C@H]1CO [Compound 58] | 
5 | 15.8 | 7.1 | 12.9 | 5.8 |  |  |  |  | CCCCC[C@H](CC(=O)NO)C(=O)N[C@@H](Cc1ccccc1)C(=O)N1CCC[C@H]1CO [Compound 42, N1-(1-benzyl-2-(2-hydroxymethyl-pyrrolidin-1-yl)-2-oxo-ethyl)-N4-hydroxy-2-pentyl-succinamide] | effective
6 | 196 | 90 |  |  |  |  |  |  | CCCCC[C@H](CC(=O)NN(C)C)C(=O)N[C@@H](Cc1ccccc1)C(=O)N1CCC[C@H]1CO [Compound 60, 2-(N′,N′-dimethyl-hydrazinocarbonylmethyl)-heptanoic acid [1-benzyl-2-(2-hydroxymethyl-pyrrolidin-1-yl)-2-oxo-ethyl]-amide] | 
7 | > 224 | > 100 |  |  |  |  |  |  | CCCCC[C@H](CC(=O)NOC)C(=O)N[C@@H](Cc1ccccc1)C(=O)N1CCC[C@H]1CO [Compound 63] | 
8 | 12.1 | 5.2 | 2.7 | 1.2 |  |  |  |  | CCCCC[C@H](CC(=O)NO)C(=O)N[C@@H](Cc1ccccc1)C(=O)N1CCC[C@H]1C [Compound 52] | effective
9 | 138 | 50 | 16.6 | 6 |  |  |  |  | CCCC[C@@H](C=O)NC(=O)[C@H](CC(C)C)NC(=O)OCc1ccccc1 [Calpeptin, reference compound] | 

The next lines start with the compound.

Row | SMILES | IC50 [1, 3] [µM] | IC50 [1, 4] [µg/mL] | IC50 [2, 5] [µM] | IC50 [2, 6] [µg/mL] | HL60 IC50 (ug/mL), 5 day thymidine incorporation [1] [µg/mL] | IC50 ([1]; read-out: HL60 IC50 (uM), 5 day thymidine incorporation) [µM] | Daudi IC50 (ug/mL), 5 day thymidine incorporation [2] [µg/mL] | IC50 ([2]; read-out: Daudi IC50 (uM), 5 day thymidine incorporation) [µM] | inhibiting cell growth (Daudi and HL60 cells)
10 | CCCCC[C@H](CC(=O)NCc1ccc([N+](=O)[O-])cc1)C(=O)N[C@@H](Cc1ccccc1)C(=O)N1CCC[C@H]1CO [Compound 61] | > 181 | > 100 |  |  |  |  |  |  | 
11 | CCCCC[C@H](CC(N)=O)C(=O)N[C@H](C(=O)N1CCC[C@H]1C)C(C)C (stereo in doubt) [Compound 51, N1-(1-(2-methyl-pyrrolidine-1-carbonyl)-2-methyl-propyl)-2-pentyl-succinamide] | 19.5 | 6.9 | 18.7 | 6.6 |  |  |  |  | 
12 | CCCCC[C@H](CC(=O)NCc1ccc(OC)cc1OC)C(=O)N[C@@H](Cc1ccccc1)C(=O)N1CCC[C@H]1CO [Compound 59] | > 176 | > 100 |  |  |  |  |  |  | 
13 | CCCCC[C@H](CC(=O)N1CCCCC1)C(=O)N[C@@H](Cc1ccccc1)C(=O)N1CCC[C@H]1CO [Compound 64] | > 206 | > 100 |  |  |  |  |  |  | 
14 | CCCCC[C@H](CC(=O)NO)C(=O)N[C@H](C(=O)N1CCC[C@H]1CN)C(C)C [Compound 53, N4-hydroxy-N1-(1-(2-methylamine-pyrrolidine-1-carbonyl)-2-methyl-propyl)-2-pentyl-succinamide] | 26 | 10 | 18.2 | 7 |  |  |  |  | effective
15 | CCCCC[C@H](CC(=O)NO)C(=O)N[C@@H](CC(C)C)C(=O)N1CCC[C@H]1CO [Compound 35, N4-hydroxy-N1-(1-(2-hydroxymethyl-pyrrolidine-1-carbonyl)-3-methyl-butyl)-2-pentyl-succinamide] | 17.7 | 7.1 | 14.1 | 5.7 |  |  |  |  | effective
16 | CC(C)[C@H](NC(=O)[C@H](C)CC(=O)NO)C(=O)N1CCC[C@H]1CO [Compound 48, N4-hydroxy-N1-(1-(2-hydroxymethyl-pyrrolidine-1-carbonyl)-2-methyl-propyl)-2-methyl-succinamide] | 29.5 | 10.5 | 22.4 | 8 |  |  |  |  | effective
17 | CCCCC[C@H](CC(=O)NO)C(=O)N[C@H](C(=O)N1CCC[C@H]1C(=O)OC)C(C)C [Compound 55] | 6.7 | 2.77 | 0.97 | 0.402 |  |  |  |  | 
18 | CCCCC[C@H](CC(N)=O)C(=O)N[C@@H](CC(C)C)C(=O)N1CCC[C@H]1CO [Compound 49, N1-(1-(2-hydroxymethyl-pyrrolidine-1-carbonyl)-3-methyl-butyl)-2-pentyl-succinamide] | > 130 | > 50 | > 130 | > 50 |  |  |  |  | 
19 | O=C(O)CNC(=O)C(CS)Cc1ccccc1 (racemic) [DL-Thiorphan, reference compound] |  |  |  |  | >100 | > 395 | >100 | > 395 | 
20 | CCCCC[C@H](CC(=O)N1CCN(C)CC1)C(=O)N[C@@H](Cc1ccccc1)C(=O)N1CCC[C@H]1CO [Compound 62, 2-[2-(4-methyl-piperazin-1-yl)-2-oxo-ethyl]-heptanoic acid [1-benzyl-2-(2-hydroxymethyl-pyrrolidin-1-yl)-2-oxo-ethyl]-amide] | > 200 | > 100 |  |  |  |  |  |  | 
21 | CCCCC[C@H](CC(=O)NO)C(=O)N[C@H](C(=O)N1CCC[C@H]1C(=O)O)C(C)C [Compound 56, N4-hydroxy-N1-(1-(2-carboxy-pyrrolidine-1-carbonyl)-2-methyl-propyl)-2-pentyl-succinamide] | > 251 | > 100 | > 251 | > 100 |  |  |  |  | effective
